Consider one compound from patent US20220133642A1, “TOPICAL FILM-FORMING SPRAY” (GRACE THERAPEUTICS INC., priority 2015, published 2022).

The series is described as follows: Solubility study for drug saturation in spray vehicle. It is filed as physicochemical. To be noted: 16 mg of drug; after standing. As to the method:
Solubility studies to find out concentration at which the drug is present at saturation levels were performed as follows: The drug (bupivacaine hydrochloride 2, 4, 8, 10, 12 & 16 mg) was added to, propylene glycol, oleyl alcohol and menthol in ethanol under stirring and mixing till clear solution is formed. The film-forming polymer in the clear drug solution was added while stirring till polymer dissolves or hydrates completely.

The structures appear in SMILES notation. Structures can show the parent of a compound that is named as a salt.

As for `CCCCN1CCCCC1C(=O)Nc1c(C)cccc1C` (stereo not shown) [bupivacaine hydrochloride], the “appearance of drug solution” value was “precipitated out from clear solution after standing”.
